# Laboratory results from patent publication US5977169A, “Substituted tetronic acids useful for treating HIV and other retroviruses” (priority 1997, dated 1999).
# Where a name gives a salt, the structure may show the parent alone.
# Biological target: T1, HIV-1 protease (Human immunodeficiency virus type 1 group M subtype B, UniProt P04585)
# T1 construct: The protease (or proteinase) enzyme, consisting of only 99 amino acids
# Assay: In vitro HIV protease inhibitory assay (fluorescently labeled substrate, avidin-polystyrene particles)
# Format: biochemical
# Conditions: for inhibition at 3.3 µM: HIV-1 dose 3.3 μM; for inhibition at 10 µM: HIV-1 dose 10.0 μM; for inhibition at 30 µM: HIV-1 dose 30.0 μM
# Protocol: The HIV protease screening assay is based on a fluorescently labeled substrate which can be resolved from nonlabeled cleavage product using avidin-polystyrene particles, 0.7-0.9 μm. The substrate is biotinylated at the amino terminal arginine and fluorescently labeled with fluorescein isothiocynate (FITC) at the carboxyl terminal lysine. This assay has been employed to detect novel, nonpeptidic inhibitors of HIV-1 protease. Substrate (20 μl of 0.2 μM), sample (10 μl of desired concentraion), and enzyme (10 μl of 0.1 μM) are added to a 96 well pandex plate. The assay is run in 0.1 M sodium acetate buffer at pH 5.5 in the presence of 1.0 M sodium chloride and 0.05% NP-40 and incubated in the dark for one hour at room temperature. Avidin coated polystyrene beads (40 μl of 0.1% (w/v)) are added and the incubation is continued in the dark for an additional half hour. The labeled cleavage product is separated from the unreacted substrate via filtration and is read on the IDEXX Screen Machine. (IDEXX Corporation--Portland, Me.) The data are analyzed by appropriate computer algorithms to ascertain percent inhibition values.
# The Activity Table showing the results of the HIV Protease Inhibitory Assay appears below in TABLE 1. The table has three columns, the left column provides the code number of the compound for easy cross reference to structure tables and detailed procedures, the middle column provides the concentration of test compound and the column on the right provides the percent inhibition.
# [1] = test compound concentration 3.3 μM
# [2] = test compound concentration 10.0 μM
# [3] = test compound concentration 30.0 μM
Structure (SMILES),inhibition at 3.3 µM [%],inhibition at 10 µM [%],inhibition at 30 µM [%],other results
"O=C1OC2(CCCCC2)C(O)=C1C(c1ccccc1)C1CC1 (stereo not drawn) [IX-3, 1-Oxaspiro[4.5]dec-3-en-2-one, 3-(cyclopropyl-phenylmethyl)-4-hydroxy-]",102,114,103,–
"O=C1OC2(CCCCC2CCc2ccccc2)C(O)=C1C(c1ccccc1)C1CC1 (stereo not drawn) [IX-4, 1 -Oxaspiro[4.5]dec-3-en-2-one, 3-(cyclo-propylphenylmethyl)-5-hydroxy--6-(2-phenylethyl)-]",–,78.1,86,HIV-1 Protease % Inhibition [1]: 56.89%
"O=C1OC2(CCCCC2CCc2ccccc2)C(O)=C1C(c1ccccc1)C1CC1 (stereo not drawn) [IX-5, 1-Oxaspiro[4.5]dec-3-en-2-one, 3-(cyclo-propylphenylmethyl)-4-hydroxy--6-(2-phenylethyl)-]",–,–,–,HIV-1 Protease % Inhibition [1]: 91.93%; HIV-1 Protease % Inhibition [2]: 95.68%; HIV-1 Protease % Inhibition [3]: 92.9%
"O=C1OC2(CCCCC2Cc2ccccc2)C(O)=C1C(c1ccccc1)C1CC1 (stereo not drawn) [IX-6, 1-Oxaspiro[4.5]dec-3-en-2-one, 3-(cyclo-propylphenylmethyl)-4-hydroxy--6-(2-phenylmethyl)-]",101,104,105,–
"O=C1OC2(CCCCC2Cc2ccccc2)C(O)=C1C(c1ccccc1)C1CC1 (stereo not drawn) [IX-7, 1-Oxaspiro[4.5]dec-3-en-2-one, 3-(cyclo-propylphenylmethyl)4-hydroxy-6--(2-phenylmethyl)-]",–,–,–,HIV-1 Protease % Inhibition [1]: 102.85%; HIV-1 Protease % Inhibition [2]: 99.7%; HIV-1 Protease % Inhibition [3]: 95.76%
"O=C1OC2(CCCCCC2)C(O)=C1C(c1ccccc1)C1CC1 (stereo not drawn) [IX-8, 1-Oxaspiro[4.6]undec-3-en-2-one, 3-(cyclo-propylphenylmethyl)-4-hydroxy-]",104,108,104,–
"CCC1(Cc2ccccc2)OC(=O)C(C(c2ccccc2)C(C)C)=C1O (stereo not drawn) [IX-9, 2(5H)-Furanone, 5-ethyl-4-hydroxy-3-(2-methy1-1-phenylpropyl)-5-(phenyl-methyl)-]",103,109,108,–
"CCC(C1=C(O)C(CC)(Cc2ccccc2)OC1=O)c1ccccc1 (stereo not drawn) [IX-10, 2(5H)-Furanone, 5-ethyl-4-hydroxy-5-(phenyl-methyl)-3-(1-phenylpropyl)-]",97.3,105,101,–
"CCCC1(CCC)OC(=O)C(C(c2cccc(N)c2)C2CC2)=C1O (stereo not drawn) [IX-11, 2(5H)-Furanone, 3-((3-aminophenyl)cyclopropylmethyl)-4-hydroxy-5,5-dipropyl-]",108,108,114,–
"CCCC1(CCC)OC(=O)C(C(c2cccc(N)c2)C2CC2)=C1O (stereo not drawn) [IX-12, 2(5H)-Furanone, 3-((3-aminophenyl)cyclopropylmethyl)-4-hydroxy-5,5-dipropyl-hydrochloride]",–,–,–,HIV-1 Protease % Inhibition [1]: 117.79%; HIV-1 Protease % Inhibition [2]: 119.69%; HIV-1 Protease % Inhibition [3]: 120.48%
"CCCC1(CCC)OC(=O)C(C(CC)c2cccc(N)c2)=C1O (stereo not drawn) [IX-13, 2(5H)-Furanone, 3-(1-(3-aminophenyl)propyl)-4-hydroxy-4-hydroxy-5,5-dipropyl-]",59.9,86.5,89.4,–
"CCCC1(CCC)OC(=O)C(C(c2cccc(NS(=O)(=O)c3ccccc3)c2)C2CC2)=C1O (stereo not drawn) [IX-15, Benzenesulfonamide, N-(3-(cyclopropyl(1,5-dihydro-4-hydroxy-2-oxo-5,5-dipropyl-3-furanyl)methyl)phenyl)-]",–,–,–,inhibition at 0.12 µM (HIV-1 dose 0.12 μM): 94%; inhibition at 0.37 µM (HIV-1 dose 0.37 μM): 102%; inhibition at 1.1 µM (HIV-1 dose 1.1 μM): 104%
CCCC1(CCC)OC(=O)C(C(c2cccc(NS(=O)(=O)c3ccc(F)cc3)c2)C2CC2)=C1O (stereo not drawn) [IX-16],108,109,106,–
CCCC1(CCC)OC(=O)C(C(c2cccc(NS(=O)(=O)c3cccc4cccnc34)c2)C2CC2)=C1O (stereo not drawn) [IX-18],102,125,106,–

# Further lines, with some results ahead:
inhibition at 3.3 µM [%],inhibition at 10 µM [%],inhibition at 30 µM [%],Structure (SMILES),other results
103,126,105,CCCC1(CCC)OC(=O)C(C(c2cccc(NS(=O)(=O)c3cccc4ccccc34)c2)C2CC2)=C1O (stereo not drawn) [IX-19],–
104,101,91.8,"CCCC1(CCC)OC(=O)C(C(CC)c2cccc(NS(=O)(=O)c3ccccc3)c2)=C1O (stereo not drawn) [IX-20, Benzenesulfonamide, N-(3-(1-(2,5-dihydro-4-hydroxy-2-oxo--5,5-dipropyl-3-furanyl)propyl)phenyl)-]",–
95.7,101,96.1,"CCCC1(CCC)OC(=O)C(C(CC(C)C)c2cccc(NS(=O)(=O)c3ccc(C#N)cc3)c2)=C1O (stereo not drawn) [IX-21, Benzenesulfonamide, 4-Cyano-N-(3-(1-(4-hydroxy-2-oxo-5,5-dipropyl-2,5-dihydro-furan-3-yl)-3-methyl-butyl)-phenyl)-]",–
94.3,96.3,94.5,CCCC1(CCC)OC(=O)C(C(CC(C)C)c2cccc(NS(=O)(=O)c3cn(C)cn3)c2)=C1O (stereo not drawn) [IX-22],–
109,101,112,"CCCC1(CCC)OC(=O)C(C(c2cccc(NS(=O)(=O)c3ccc(C#N)cc3)c2)C(C)C)=C1O (stereo not drawn) [IX-23, Benzenesulfonamide, 4-Cyano-N-(3-(1-(4-hydroxy-2-oxo-5,5-dipropyl-2,5-dihydro-furan-3-yl)-2-methyl-propyl)-phenyl)-]",–
120,120,117,"CCCC1(CCC)OC(=O)C(C(c2cccc(NS(=O)(=O)c3ccc(C#N)cc3)c2)C(C)(C)C)=C1O (stereo not drawn) [IX-25, Benzenesulfonamide, 4-Cyano-N-(3-(1-(4-hydroxy-2-oxo-5,5-dipropyl-2,5-dihydro-furan-3-yl)-2,2-dimethyl-propyl)-phenyl)-]",–
110,116,105,"CCCC1(CCC)OC(=O)C(C(c2cccc(NS(=O)(=O)c3cn(C)cn3)c2)C(C)(C)C)=C1O (stereo not drawn) [IX-26, 1H-Imidazole-4-sulfonamide, N-(3-(1-(4-hydroxy-2-oxo-5,5-dipropyl-2,5-dihydro-furan-3-yl)-2,2-dimethyl-propyl)-phenyl)-1-methyl-]",–
105,117,106,"CCCC1(Cc2ccccc2)OC(=O)C(C(c2cccc(NS(=O)(=O)c3ccccc3)c2)C(C)C)=C1O (stereo not drawn) [IX-27, Benzenesulfonamide, N-(3-(1-(2,5-dihydro-4-hydroxy-2-oxo-5--(phenylmethyl)-5-propyl-3-furanyl)-2-methylpropyl)phenyl)-]",–
123,118,125,CCCC1(Cc2ccccc2)OC(=O)C(C(c2cccc(NS(=O)(=O)c3ccc(C#N)cc3)c2)C(C)C)=C1O (stereo not drawn) [IX-28],–
94.9,102,93.3,"CCCC1(Cc2ccccc2)OC(=O)C(C(c2cccc(NS(=O)(=O)c3ccc(F)cc3)c2)C(C)C)=C1O (stereo not drawn) [IX-29, Benzenesulfonamide, N-(3-(1-(2,5-dihydro-4-hydroxy-2-oxo-5-(phenylmethyl)-5-propyl-3-furanyl)-2-methylpropyl)phenyl)-4-fluoro-]",–
97.1,96.6,94.3,CCCC1(Cc2ccccc2)OC(=O)C(C(c2cccc(NS(=O)(=O)c3cn(C)cn3)c2)C(C)C)=C1O (stereo not drawn) [IX-30],–
107,114,109,CCCC1(Cc2ccccc2)OC(=O)C(C(c2cccc(NS(=O)(=O)c3cccc4cccnc34)c2)C(C)C)=C1O (stereo not drawn) [IX-31],–
100,106,111,"CCCC1(CCC)OC(=O)C(C(c2cccc(NC(=O)OCc3ccccc3)c2)C2CC2)=C1O (stereo not drawn) [IX-32, Carbamic acid, (3-(cyclopropyl(2,5-dihydro-4-hydroxy-2-oxo-5,5-dipropyl-3-furanyl)methyl)phenyl)-, phenylmethyl ester]",–
97,98.1,93.3,"CCC1CCCCC12OC(=O)C(C(c1ccccc1)C1CC1)=C2O (stereo not drawn) [IX-34, 1-Oxaspiro[4.5]dec-3-en-2-one, 3-(cyclopropylphenylmethyl)-4-hydroxy-6-ethyl-]",–
82.2,98.8,91.9,"CCCC1(CCC)OC(=O)C(C(c2cccc(NS(=O)(=O)c3ccc(C#N)cn3)c2)C2CC2)=C1O (stereo not drawn) [IX-35, 5-cyano-2-pyridinesulfonamide, N-(3-(cyclopropyl(2,5-dihydro-4-hydroxy-2-oxo-5,5-dipropyl-3-furanyl)methyl)phenyl)-]",–
37,79.6,83,CCCC1(CCC)OC(=O)C(C(c2cccc(NS(=O)(=O)c3ncc[nH]3)c2)C2CC2)=C1O (stereo not drawn) [IX-36],–
